Reference: EP0647618A1, “NEW NON IONIC IODINE-CONTAINING DIMERS USEFUL AS X-RAY CONTRAST AGENTS, METHOD FOR THE PREPARATION THEREOF, AND GALENICAL COMPOSITIONS CONTAINING THEM” (CENTRO INVESTIGACION JUSTESA IMAGEN S.A., priority 1993, dated 1994)
Read-outs that look alike come from different tables or passages of the source.

Columns and labels:
[1] = physchem; format: physicochemical; conditions: for solubility: water
Description: (§1) On the other hand, radiologists need compounds with a wide range of uses: for example, angiography, urography, myelography, cisternography, lymphography, cardiography and gastrography. The products according to this invention fulfil the requirements for the above uses, as they have high water solubility, normally higher than 60% (w/v), which, in some cases, is as high as 100% at 20°C, without showing any tendency to crystallize. They also have a very low general toxicity, stated as the average lethal dose for the rat, DL₅₀.

[2] = Viscosity of aqueous solution at 300 mg I/ml; format: physicochemical; conditions: for VISCOSITY mPas (37°C) at 300 mg I/ml: 300 mg I/ml (Table II); for VISCOSITY 37°C mPa.s 300 mg I/ml: 300 mg I/ml (Table I)
[3] = Osmolality of aqueous solution at 300 mg I/ml; format: physicochemical; conditions: for OSMOLALITY mOsm/kg at 300 mg I/ml: 300 mg I/ml (Table II); for OSMOLALITY 37°C mOsm/kg at 300 mg I/ml: 300 mg I/ml (Table I)
[4] = tested on: RAT; test: General toxicity, average lethal dose (DL50) in the rat, i.v.; format: in vivo
Description: as §1

[5] = 20°C (Table II), read-out: SOLUBILITY IN WATER at 20°

Compound | solubility [1, 5] | VISCOSITY mPas (37°C) at 300 mg I/ml [2] | OSMOLALITY mOsm/kg at 300 mg I/ml [3] | further results
CN(C(=O)CN(CCO)CC(=O)N(C)c1c(I)c(C(=O)NC(CO)C(O)CO)c(I)c(C(=O)NC(CO)C(O)CO)c1I)c1c(I)c(C(=O)NCCO)c(I)c(C(=O)NCCO)c1I (stereo not drawn) [ICJ-2092, N-{3,5-Bis-[N-(1-hydroxymethyl-2,3-dihydroxypropyl)carbamoyl]-2,4,6-triiodophenyl}-N'-{3,5-bis-[N-(2-hydroxyethyl)carbamoyl]-2,4,6-triiodophenyl}-N,N'-dimethyl-3-(2-hydroxyethyl)-3-azapentanediamide] | > 600 mg/mL | 9.5 mPas | 188 mOsm/kg | 
O=C(CN(CCO)CC(=O)Nc1c(I)c(C(=O)NCC(O)CO)c(I)c(C(=O)NCC(O)CO)c1I)Nc1c(I)c(C(=O)NCC(O)CO)c(I)c(C(=O)NCC(O)CO)c1I (stereo not drawn) [ICJ-1192, N,N'-Bis-{3,5-bis-[N-(2,3-dihydroxypropyl)carbamoyl]-2,4,6-triiodophenyl}-3-(2-hydroxyethyl)-3-azapentanediamide] |  | 9.4 mPas | 167 mOsm/kg | DL50 (RAT) via i.v. g I/kg [4]: > 25 g I/kg; SOLUBILITY IN WATER at 20° ([1]; 20°C (Table II)): > 60%; solubility ([1]; 20°C (Table I), read-out: SOLUBILITY in water at 20°C (w/v)): > 600 mg/mL; VISCOSITY 37°C mPa.s 300 mg I/ml [2]: 9.4 mPa.s; OSMOLALITY 37°C mOsm/kg at 300 mg I/ml [3]: 167 mOsm/kg
CN(CC(=O)Nc1c(I)c(C(=O)NCC(O)CO)c(I)c(C(=O)NCC(O)CO)c1I)CC(=O)Nc1c(I)c(C(=O)NCC(O)CO)c(I)c(C(=O)NCC(O)CO)c1I (stereo not drawn) [ICJ-2792, N,N'-Bis-{3,5-bis-[N-(2,3-dihydroxypropyl)carbamoyl]-2,4,6-triiodophenyl}-3-methyl-3-azapentanediamide] | < 600 mg/mL |  |  | 
CN(C(=O)CN(CCO)CC(=O)N(C)c1c(I)c(C(=O)NCCO)c(I)c(C(=O)NCCO)c1I)c1c(I)c(C(=O)NCCO)c(I)c(C(=O)NCCO)c1I [ICJ-2392, N,N'-Bis-{3,5-bis-[N-(2-hydroxethyl)carbamoyl]-2,4,6-triiodophenyl}-N,N'-dimethyl-3-(2-hydroxyethyl)-3-azapentanedimide] | < 600 mg/mL |  |  | 
CN(C(=O)CN(CCO)CC(=O)Nc1c(I)c(C(=O)NCC(O)CO)c(I)c(C(=O)NCC(O)CO)c1I)c1c(I)c(C(=O)NCC(O)CO)c(I)c(C(=O)NCC(O)CO)c1I (stereo not drawn) [ICJ-1792, N,N'-Bis-{3,5-bis-[N-(2,3-dihydroxypropyl)carbamoyl]-2,4,6-triiodophenyl}-N-methyl-3-(2-hydroxyethyl)-3-azapentanediamide] | > 600 mg/mL | 10.6 mPas | 157 mOsm/kg | 
CN(C(=O)CN(CCO)CC(=O)Nc1c(I)c(C(=O)NCCO)c(I)c(C(=O)NCCO)c1I)c1c(I)c(C(=O)NCC(O)CO)c(I)c(C(=O)NCC(O)CO)c1I (stereo not drawn) [ICJ-2492, N-{3,5-Bis-[N-(2,3-dihydroxpropyl)carbamoyl]-2,4,6-triiodophenyl}-N-methyl-N'-{3,5-bis-[N-(2-hydroxyethyl)carbamoyl]-2,4,6-triiodophenyl}-3-(2-hydroxyethyl)-3-azapentanediamide] | < 600 mg/mL |  |  | 
CN(C(=O)CN(CCO)CC(=O)Nc1c(I)c(C(=O)NC(CO)C(O)CO)c(I)c(C(=O)NC(CO)C(O)CO)c1I)c1c(I)c(C(=O)NCCO)c(I)c(C(=O)NCCO)c1I (stereo not drawn) [ICJ-1992, N-{3,5-Bis-[N-(1-hydroxymethyl-2,3-dihydroxypropyl)carbamoyl]-2,4,6-triiodophenyl}-N'-methyl-N'-{3,5-bis-[N-(2-hydroxyethyl)carbamoyl]-2,4,6-triiodophenyl}-3-(2-hydroxyethyl)-3-azapentanediamide] | > 600 mg/mL | 9.1 mPas | 164 mOsm/kg | 
CN(C(=O)CN(CCO)CC(=O)N(C)c1c(I)c(C(=O)NCC(O)CO)c(I)c(C(=O)NCC(O)CO)c1I)c1c(I)c(C(=O)NCC(O)CO)c(I)c(C(=O)NCC(O)CO)c1I (stereo not drawn) [ICJ-1692, N,N'-Bis-{3,5-bis-[N-(2,3-dihydroxypropyl)carbamoyl]-2,4,6-triiodophenyl}-N,N'-dimethyl-3-(2-hydroxethyl)-3-azapentanediamide] |  | 9.3 mPas | 174 mOsm/kg | DL50 (RAT) via i.v. g I/kg [4]: > 20 g I/kg; SOLUBILITY IN WATER at 20° [1]: > 60%; solubility [1]: > 600 mg/mL; VISCOSITY 37°C mPa.s 300 mg I/ml [2]: 9.3 mPa.s; OSMOLALITY 37°C mOsm/kg at 300 mg I/ml [3]: 174 mOsm/kg
COCCN(CC(=O)N(C)c1c(I)c(C(=O)NCC(O)CO)c(I)c(C(=O)NCC(O)CO)c1I)CC(=O)N(C)c1c(I)c(C(=O)NCC(O)CO)c(I)c(C(=O)NCC(O)CO)c1I (stereo not drawn) [ICJ-2892, N,N'-Bis-{3,5-bis-[N-(2,3-dihydroxypropyl)carbamoyl]-2,4,6-triiodophenyl}-N,N'-dimethyl-3-(2-methoxymethyl)-3-azapentanediamide] | > 600 mg/mL | 10.8 mPas | 200 mOsm/kg | 
CN(C(=O)CN(CCO)CC(=O)N(C)c1c(I)c(C(=O)NCC(O)CO)c(I)c(C(=O)NCC(O)CO)c1I)c1c(I)c(C(=O)NCCO)c(I)c(C(=O)NCCO)c1I (stereo not drawn) [ICJ-2292, N-{3,5-Bis-[N-(2,3-dihydroxypropyl)carbamoyl]-2,4,6-triiodophenyl}-N'-{3,5-bis-[N-(2-hydroxyethyl)carbamoyl]-2,4,6-triiodophenyl}-N,N'-dimethyl-3-(2-hydroxyethyl)-3-azapentanediamide] | > 600 mg/mL | 11.0 mPas | 162 mOsm/kg | 
O=C(CN(CC(=O)Nc1c(I)c(C(=O)NCC(O)CO)c(I)c(C(=O)NCC(O)CO)c1I)CC(O)CO)Nc1c(I)c(C(=O)NCCO)c(I)c(C(=O)NCCO)c1I (stereo not drawn) [ICJ-1492, N-{3,5-bis-[N-(2,3-dihydroxypropyl)carbamoyl]-2,4,6-triiodophenyl}-N'-{3,5-bis-[N-(2-hydroxyethyl)carbamoyl]-2,4,6-triiodophenyl)-3-(2,3-dihydroxypropyl)-3-azapentanediamide] | < 600 mg/mL | 9.5 mPas | 137 mOsm/kg | 
CN(CC(=O)N(C)c1c(I)c(C(=O)NCC(O)CO)c(I)c(C(=O)NCC(O)CO)c1I)CC(=O)N(C)c1c(I)c(C(=O)NCC(O)CO)c(I)c(C(=O)NCC(O)CO)c1I (stereo not drawn) [ICJ-2992, N,N'-Bis-{3,5-bis-[N-(2,3-dihydroxypropyl)carbamoyl]-2,4,6-triiodophenyl}-N,N'-dimethyl-3-methyl-3-azapentanediamide] | > 600 mg/mL |  |  | 
CN(C(=O)CN(CCO)CC(=O)Nc1c(I)c(C(=O)NCCO)c(I)c(C(=O)NCCO)c1I)c1c(I)c(C(=O)NC(CO)C(O)CO)c(I)c(C(=O)NC(CO)C(O)CO)c1I (stereo not drawn) [ICJ-1892, N{3,5-Bis-[N-(1-hydroxymethyl-2,3-dihydroxypropyl)carbamoyl]-2,4,6-triiodophenyl}-N-methyl-N'-{3,5-bis-[N-(2-hydroxyethyl)carbamoyl]-2,4,6-triiodophenyl}-3-(2-hydroxyethyl)-3-azapentanediamide] | > 600 mg/mL | 9.7 mPas | 133 mOsm/kg | 
O=C(CN(CC(=O)Nc1c(I)c(C(=O)NCC(O)CO)c(I)c(C(=O)NCC(O)CO)c1I)CC(O)CO)Nc1c(I)c(C(=O)NCC(O)CO)c(I)c(C(=O)NCC(O)CO)c1I (stereo not drawn) [ICJ-1092, N,N'-Bis-{3,5-bis-[N-(2,3-dihydroxypropyl)carbamoyl]-2,4,6-triiodophenyl}-3-(2,3-dihydroxypropyl)-3-azapentanediamide] | > 600 mg/mL | 10.3 mPas | 193 mOsm/kg | 
O=C(CN(CCO)CC(=O)Nc1c(I)c(C(=O)NCCO)c(I)c(C(=O)NCCO)c1I)Nc1c(I)c(C(=O)NCCO)c(I)c(C(=O)NCCO)c1I [ICJ-1392, N,N'-Bis-{3,5-bis-[N-(2-hydroxyethyl)carbamoyl]-2,4,6-triiodophenyl}-3-(2-hydroxyethyl)-3-azapentanedimide] | < 600 mg/mL |  |  | 
COCCN(CC(=O)Nc1c(I)c(C(=O)NCC(O)CO)c(I)c(C(=O)NCC(O)CO)c1I)CC(=O)Nc1c(I)c(C(=O)NCC(O)CO)c(I)c(C(=O)NCC(O)CO)c1I (stereo not drawn) [ICJ-2692, N,N'-Bis-{3,5-bis-[N-(2,3-dihydroxypropyl)carbamoyl]-2,4,6-triiodophenyl}-3-(2-methoxyethyl)-3-azapentanediamide] | > 600 mg/mL | 9.7 mPas | 185 mOsm/kg | 
O=C(CN(CCO)CC(=O)Nc1c(I)c(C(=O)NCC(O)CO)c(I)c(C(=O)NCC(O)CO)c1I)Nc1c(I)c(C(=O)NCCO)c(I)c(C(=O)NCCO)c1I (stereo not drawn) [ICJ-1292, N-{3,5-Bis-[N-(2,3-dihydroxypropyl)carbamoyl]-2,4,6-triiodophenyl}-N'-{3,5-bis-[N-(2-hydroxyethyl)carbamoyl]-2,4,6-triiodophenyl}-3-(2-hydroxyethyl)-3-azapentanediamide] | < 600 mg/mL |  |  | 
CN(C(=O)CN(CCO)CC(=O)Nc1c(I)c(C(=O)NCC(O)CO)c(I)c(C(=O)NCC(O)CO)c1I)c1c(I)c(C(=O)NCCO)c(I)c(C(=O)NCCO)c1I (stereo not drawn) [ICJ-2192, N-{3,5-Bis-[N-(2,3-dihydroxpropyl)carbamoyl]-2,4,6-triiodophenyl}-N'-methyl-N'-{3,5-bis-[N-(2-hydroxyethyl)carbamoyl]-2,4,6-triiodophenyl}-3-(2-hydroxyethyl)-3-azapentanediamide] | < 600 mg/mL |  |  | 
O=C(CN(CC(=O)Nc1c(I)c(C(=O)NCCO)c(I)c(C(=O)NCCO)c1I)C(CO)C(O)CO)Nc1c(I)c(C(=O)NCCO)c(I)c(C(=O)NCCO)c1I (stereo not drawn) [ICJ-2592, N,N'-Bis-{3,5-bis-[N-(2-hydroxyethyl)carbamoyl]-2,4,6-triiodophenyl}-3-(1-hydroxymethyl-2,3-dihydroxypropyl)-3-azapentanediamide] | > 600 mg/mL | 9.1 mPas | 180 mOsm/kg | 
